Experimental data taken from patent publication EP3202813A1, “CURABLE COMPOSITION AND MOLDED ARTICLE COMPRISING THE COMPOSITION” (Telene SAS, priority 2016, dated 2017).

Experiment: Half-life t1/2CT of radical generators, calculated by Arrhenius formulae from supplier data
Assay type: physicochemical
Excerpt: The half-life of the radical generators used in the compositions for different curing temperatures CT have been calculated by using the well-known formulae given below and data obtained by the supplier of the radical generators (AkzoNobel) (Tables 1-4) kd = A⋅e^(−Ea/RT) [formula] t½ = (ln2)/kd [formula] • Ea = 127.52 kJ/mole • A = 7.59E+13 s^-1 • R = 8.3142 J/mole·K • T = (273.15+°C) K Table 1: The half-life t1/2CT of Trigonox 29C at different curing temperatures CT
kd = A⋅e^(−Ea/RT) [formula] t½ = (ln2)/kd [formula] • Ea = 124.90 kJ/mole • A = 1.54E+14 s^-1 • R = 8.3142 J/mole·K • T = (273.15+°C) K Table 2: The half-life t1/2CT of Trigonox 21S at different curing temperatures CT
kd = A⋅e^(−Ea/RT) [formula] t½ = (ln2)/kd [formula] • Ea = 140.78 kJ/mole • A 1.94E+15 s^-1 • R = 8.3142 J/mole·K • T =(273.15+°C) K Table 3: The half-life t1/2CT of Trigonox 42S at different curing temperatures CT
kd = A⋅e^(−Ea/RT) [formula] t½ = (ln2)/kd [formula] • Ea = 153.46 kJ/mole • A = 4.20E+15 s^-1 • R = 8.3142 J/mole·K • T = (273.15+°C) K Table 4: The half-life t1/2CT of Trigonox B at different curing temperatures CT

CC(C)(C)OOC(C)(C)C [Trigonox B, tert-butyl peroxide]
t1/2 (T 80 °C): 2291.85 h | t1/2 (h) (T 80 °C): 2291,8 h | t1/2 (min) (T 80 °C): 137511,0 min | t1/2 (T 90 °C): 543.4131 h | t1/2 (h) (T 90 °C): 543,4 h | t1/2 (min) (T 90 °C): 32604,8 min | t1/2 (T 95 °C): 272.481 h | t1/2 (h) (T 95 °C): 272,5 h | t1/2 (min) (T 95 °C): 16348,8 min | t1/2 (T 100 °C): 139.18 h | t1/2 (h) (T 100 °C): 139,2 h | t1/2 (min) (T 100 °C): 8350,8 min | t1/2 (T 105 °C): 72.3653 h | t1/2 (h) (T 105 °C): 72,4 h | t1/2 (min) (T 105 °C): 4341,9 min | t1/2 (T 110 °C): 38.2736 h | t1/2 (h) (T 110 °C): 38,3 h | t1/2 (min) (T 110 °C): 2296,4 min | t1/2 (T 120 °C): 11.239 h | t1/2 (h) (T 120 °C): 11,2 h | t1/2 (min) (T 120 °C): 674,4 min | t1/2 (T 130 °C): 3.5075 h | t1/2 (h) (T 130 °C): 3,5 h | t1/2 (min) (T 130 °C): 210,4 min | t1/2 (T 150 °C): 0.4028 h | t1/2 (h) (T 150 °C): 0,4 h | t1/2 (min) (T 150 °C): 24,2 min | t1/2 (T 190 °C): 0.00944 h | t1/2 (h) (T 190 °C): 0,01 h | t1/2 (min) (T 190 °C): 0,6 min
